“Also recorded” adds a separate entry of the source.
Columns and labels:
[1] = cited from earlier work
[2] = test system: tumor cell surface FR; conditions: cited from earlier work
[3] = test system: THP1-FRβ tumor cells; test: intravenous THP1-FRβ AML xenograft, E2 CAR-T cells plus EC17 dosing regimens; type: in vivo
Procedure: One objective of this E2-CAR T-cell study was to test EC17/E2 CAR-T cell activity and related toxicity (e.g., sCRS) using multiple dosing regimens starting 3 days after CAR-T infusion. Three different EC17 dosing regimens include (a) once-a-week (SIW) at 500 nmol/kg, (b) “T1W-like” at 5, 50, and 500 nmol/kg on Monday/Wednesday/Friday with 9-day intervals, and (c) “T1W-like” at 5, 100, and 1000 nmol/kg on Monday/Thursday/Monday with 7-day intervals.
THP-1-FRβ AML tumor cells were grown in folate-deficient RPMI 1640 with 5-10% FBS at 37° C. in a 5% CO2 humidified atmosphere. THP-1-FRO tumor cells in serum-free folate-deficient RPMI1640 medium were i.v. injected at 5×10^6 cells per animal.
Anti-FITC E2 scFv-CAR T cells were frozen in a T-cell freezing medium. Upon arrival, vials of frozen CAR-T cells were immediately stored at −80° C. The CAR-T cells were quickly thawed at 37° C., washed twice with CAR-T cell culture medium, and used for animal injection at 6 million viable EGFRt+E2 CAR-T cells (CD4/CD8 at ~1:1) per animal. A small aliquot was taken on the day infusion for flow cytometric analysis of E2-CAR T-cell phenotypes.
EC17 and bis-EDA-FITC dosing solutions were prepared when dosing began by weighing appropriate amounts of each compound, reconstituting in PBS, pH 7.4, sterile filtering the drug solution through a 0.22 pm PVDF syringe filter, and freezing aliquots for each day of dosing at −20° C.
All EC17 doses were given towards the end of day (3-4 PM) to allow potential CRS (cytokine release syndrome) to develop overnight. In the following morning, animals were scored according to a CRS grading system (see below).
Daily body weight measurement on the days after EC17 dose is required. Attention was given to gross animal morphology and behavior. Euthanasia was performed if mice lose a lot of weight in a short duration or when mice are approaching moribund conditions per CRS grading system or neurotoxicity.
Tumor growth, body weight, and overall assessment: Body weight measured 2-3 times/week. On the days immediately after any EC17 dose, body weight measurement was taken daily, and attentions were given to gross animal morphology and behavior.
Whole blood cell analysis: Plasma was removed from predetermined volumes of whole EDTA treated blood and RBCs were lysed with RBC lysis solution. The leukocyte pellets were then resuspended in flow cytometry staining solution (1% bovine serum albumin, 50 mg/mL human IgG (Equitech Bio, cat #SLH56-0001), 0.9% sodium azide in a phosphate buffered saline, pH=7.4) and leukocyte surface marker staining was performed using the following antibodies: anti-human CD45 (clone HI30, eBioscience #47-0459-42 at 1:20 (v/v) dilution), anti-human CD137 (clone 4B4-1, BD Bioscience #564092 at 1:20 (v/v) dilution), anti-human CD8α [clone RPA-T8, BD Bioscience, catalog #557746 at 1:20 (v/v) dilution], anti-human CD4 [clone SK3, eBioscience catalog #46-0047-42 at 1:20 (v/v) dilution], anti-human EGFR [R&D systems, clone Hu1, catalog #FAB9577B @1:10(n/n)], anti-human PD1 [BD Biosciences, clone EH12.1, catalog #562511 @1:20 (v/v)], anti-human LAG3 [BD Biosciences, clone T47-530, catalog #565616 @1:20 (v/v)], anti-human TIM3 [BD Biosciences, clone 7D3, catalog #565558 @1:20 (v/v)], anti-human CD3ε [BD Biosciences, clone SK7, catalog #557832 @1:20 (v/v)]. After leukocyte staining, cells were washed with PBS and resuspended in cold PBS containing 53,000 CountBright™ beads [Invitrogen catalog #C36950] and transferred to flow cytometry collection tubes. Flow cytometry data was collected on the Gallios flow cytometer (Beckman Coulter, Brea, CA). Determination of the concentration of CAR T cells in each blood sample was calculated according to Invitrogen's instructions. CAR T cells were identified as human CD3ε+EGFRt+ events and easily distinguished and counted using the Kaluza™ flow cytometry software. […]

[4] = 6 million CAR-T + EC17 SIW 500 nmol/kg (Cohort 3)

NC1=NC2N=CC(CNc3ccc(C(=O)N[C@@H](CCC(=O)NCCNC(=S)Nc4ccc(-c5c6ccc(=O)cc-6oc6cc(O)ccc56)c(C(=O)O)c4)C(=O)O)cc3)=NC2C(=O)N1 (stereo partly drawn) [EC17, FA-(γ)-ethylenediamine-FITC]
clearance from circulation ([1]; 0.1 mg/kg intravenous): rapid clearance from circulation
time EC17 fluorescence signal observed at the site of the tumor ([1]; after administration, latest time-point evaluated): up to 5 hours
time to real-time visualization of malignant lesions ([1]; post EC17 administration): ≤ 2 h
elimination half-life ([1]; single 10-minute intravenous infusion of 0.1 mg/kg, plasma): 1.45 h
affinity for tumor cell surface FR [2]: sub-nanomolar
body weight loss ([3]; 6 million CAR-T + EC17 M/Th/M dose escalation (Cohort 5)): little body weight loss during the first two cycles; also recorded: very mild body weight loss
CRS grade [3, 4]: 1-2
body weight loss [3, 4]: EC17 dose-dependent body weight loss after each EC17 dose; also recorded: some body weight loss
body weight loss ([3]; 6 million CAR-T + EC17 TIW 5/50/500 nmol/kg on/off (Cohort 4)): mildest body weight loss among three treatment groups; also recorded: least body weight loss
circulating THP1-FRβ (GFP+) tumor cells in blood ([3]; E2 CAR T cells + EC17, all three dosing regimens, end of study): significant reduction in circulating THP1 cell burden; also recorded: effectively reduced circulating THP11-FRβ tumor cells in the blood
non-liver macrometastases ([3]; EC17 M/Th/M dose escalation at a slow pace per cycle): failed to control the non-liver macrometastases
non-liver macrometastases ([3]; EC17 SIW 500 nmol/kg): successfully controlled non-liver macrometastases
non-liver macrometastases ([3]; EC17 TIW 5/50/500 nmol/kg on/off): successfully controlled non-liver macrometastases
liver and non-liver (overall) tumor burden ([3]; EC17 TIW 5/50/500 nmol/kg on/off (Cohort 4), Day 39): best anti-tumor activity among the three different EC17 dose schedules; also recorded: trended to be the best regimen
co-expression of PD1, LAG3, TIM3 on CAR T cells from liver tumors ([3]; EC17 TIW (cohort 4)): fewest number of double and triple positive events
CAR T exhaustion ([3]; all three EC17 dosing regimens): very little induction of CAR T exhaustion
severe CRS (grades≥3) ([3]; any EC17 treated cohort): no severe CRS (i.e., grades≥3) was observed
circulating CAR-T cells in blood ([3]; satellite animals, day 31, all EC17 treated cohorts): EC17-dependent CAR-T cell expansion and persistence in all treated cohorts

From US20260263517A1, “THERAPEUTIC METHODS WITH TARGET-LINKED SMALL MOLECULES AND ANTI-TARGET CAR T CELLS” (Seattle Children's Hospital (dba Seattle Children's …, priority 2022, published 2026)
